In ChEMBL document CHEMBL3046244, “Efficient synthesis of piperazine-2,6-dione and 4-(1H-indole-2-carbonyl)piperazine-2,6-dione derivatives and their evaluation for anticancer activity” (2013):

Columns and labels:
Format in all cases: functional
[1] = test system: NCI-H522; test: Growth inhibition of Homo sapiens (human) NCI-H522 cells at 10 uM after 48 hr by SRB assay; conditions: NCI-H522, 48 h, read-out: GI
[2] = test system: PA-1; test: Growth inhibition of Homo sapiens (human) PA1 cells at 10 uM after 48 hr by SRB assay; conditions: PA-1, 48 h, read-out: GI
[3] = test system: HepG2; test: Growth inhibition of Homo sapiens (human) HepG2 cells at 10 uM after 48 hr by SRB assay; conditions: HepG2, 48 h, read-out: GI
[4] = test system: HCT-15; test: Growth inhibition of Homo sapiens (human) HCT15 cells at 10 uM after 48 hr by SRB assay; conditions: HCT-15, 48 h, read-out: GI
[5] = test system: T47D; test: Growth inhibition of Homo sapiens (human) T47D cells at 10 uM after 48 hr by SRB assay; conditions: read-out: GI

O=C(c1cc2ccccc2[nH]1)N1CC(=O)N(C2CCCCC2)C(=O)C1
inhibition of growth at 10 µM [1]: 6%
inhibition of growth at 10 µM [2]: 40%
inhibition of growth at 10 µM [3]: 25%
inhibition of growth at 10 µM [4]: 30%
inhibition of growth at 10 µM [5]: 7%

O=C(c1cc2ccccc2[nH]1)N1CC(=O)N(CCCn2ccnc2)C(=O)C1
inhibition of growth at 10 µM [1]: 0%
inhibition of growth at 10 µM [2]: 17%
inhibition of growth at 10 µM [3]: 34%
inhibition of growth at 10 µM [4]: 7%
inhibition of growth at 10 µM [5]: 0%

O=C(c1cc2ccccc2[nH]1)N1CC(=O)N(Cc2ccccn2)C(=O)C1
inhibition of growth at 10 µM [1]: 19%
inhibition of growth at 10 µM [2]: 23%
inhibition of growth at 10 µM [3]: 34%
inhibition of growth at 10 µM [4]: 2%
inhibition of growth at 10 µM [5]: 20%

O=C(c1cc2ccccc2[nH]1)N1CC(=O)N(Cc2cccnc2)C(=O)C1
inhibition of growth at 10 µM [1]: 4%
inhibition of growth at 10 µM [2]: 13%
inhibition of growth at 10 µM [3]: 17%
inhibition of growth at 10 µM [4]: 14%
inhibition of growth at 10 µM [5]: 12%

O=C(c1cc2ccccc2[nH]1)N1CC(=O)N(Cc2ccncc2)C(=O)C1
inhibition of growth at 10 µM [1]: 5%
inhibition of growth at 10 µM [2]: 42%
inhibition of growth at 10 µM [3]: 20%
inhibition of growth at 10 µM [4]: 38%
inhibition of growth at 10 µM [5]: 21%

O=C(c1cc2ccccc2[nH]1)N1CC(=O)N(CCN2CCOCC2)C(=O)C1
inhibition of growth at 10 µM [1]: 8%
inhibition of growth at 10 µM [2]: 18%
inhibition of growth at 10 µM [3]: 3%
inhibition of growth at 10 µM [4]: 7%
inhibition of growth at 10 µM [5]: 16%

O=C(c1cc2ccccc2[nH]1)N1CC(=O)N(Cc2cccs2)C(=O)C1
inhibition of growth at 10 µM [1]: 0%
inhibition of growth at 10 µM [2]: 24%
inhibition of growth at 10 µM [3]: 45%
inhibition of growth at 10 µM [4]: 15%
inhibition of growth at 10 µM [5]: 6%

O=C(c1cc2ccccc2[nH]1)N1CC(=O)N(CCc2cccs2)C(=O)C1
inhibition of growth at 10 µM [1]: 14%
inhibition of growth at 10 µM [2]: 11%
inhibition of growth at 10 µM [3]: 19%
inhibition of growth at 10 µM [4]: 4%
inhibition of growth at 10 µM [5]: 9%

O=C(c1cc2ccccc2[nH]1)N1CC(=O)N(Cc2ccco2)C(=O)C1
inhibition of growth at 10 µM [1]: 15%
inhibition of growth at 10 µM [2]: 23%
inhibition of growth at 10 µM [3]: 36%
inhibition of growth at 10 µM [4]: 24%
inhibition of growth at 10 µM [5]: 21%

O=C(c1cc2ccccc2[nH]1)N1CC(=O)N(CCN2CCCC2)C(=O)C1
inhibition of growth at 10 µM [1]: 31%
inhibition of growth at 10 µM [2]: 29%
inhibition of growth at 10 µM [3]: 30%
inhibition of growth at 10 µM [4]: 17%
inhibition of growth at 10 µM [5]: 16%

O=C1CCCN1CCCN1C(=O)CN(C(=O)c2cc3ccccc3[nH]2)CC1=O
inhibition of growth at 10 µM [1]: 8%
inhibition of growth at 10 µM [2]: 8%
inhibition of growth at 10 µM [3]: 11%
inhibition of growth at 10 µM [4]: 27%
inhibition of growth at 10 µM [5]: 14%

O=C1CNCC(=O)N1C1CCCCC1
inhibition of growth at 10 µM [1]: 11%
inhibition of growth at 10 µM [2]: 24%
inhibition of growth at 10 µM [3]: 38%
inhibition of growth at 10 µM [4]: 7%
inhibition of growth at 10 µM [5]: 15%

O=C1CNCC(=O)N1CCCn1ccnc1
inhibition of growth at 10 µM [1]: 8%
inhibition of growth at 10 µM [2]: 23%
inhibition of growth at 10 µM [3]: 13%
inhibition of growth at 10 µM [4]: 32%
inhibition of growth at 10 µM [5]: 8%

O=C1CNCC(=O)N1Cc1ccccn1
inhibition of growth at 10 µM [1]: 8%
inhibition of growth at 10 µM [2]: 17%
inhibition of growth at 10 µM [3]: 31%
inhibition of growth at 10 µM [4]: 1%
inhibition of growth at 10 µM [5]: 16%

O=C1CNCC(=O)N1Cc1cccnc1
inhibition of growth at 10 µM [1]: 4%
inhibition of growth at 10 µM [2]: 20%
inhibition of growth at 10 µM [3]: 21%
inhibition of growth at 10 µM [4]: 20%
inhibition of growth at 10 µM [5]: 8%

O=C1CNCC(=O)N1Cc1ccncc1
inhibition of growth at 10 µM [1]: 8%
inhibition of growth at 10 µM [2]: 27%
inhibition of growth at 10 µM [3]: 25%
inhibition of growth at 10 µM [4]: 33%
inhibition of growth at 10 µM [5]: 4%

O=C1CNCC(=O)N1CCN1CCOCC1
inhibition of growth at 10 µM [1]: 9%
inhibition of growth at 10 µM [2]: 37%
inhibition of growth at 10 µM [3]: 38%
inhibition of growth at 10 µM [4]: 4%
inhibition of growth at 10 µM [5]: 1%

O=C1CNCC(=O)N1Cc1cccs1
inhibition of growth at 10 µM [1]: 15%
inhibition of growth at 10 µM [2]: 18%
inhibition of growth at 10 µM [3]: 29%
inhibition of growth at 10 µM [4]: 4%
inhibition of growth at 10 µM [5]: 8%

O=C1CNCC(=O)N1CCc1cccs1
inhibition of growth at 10 µM [1]: 21%
inhibition of growth at 10 µM [2]: 15%
inhibition of growth at 10 µM [3]: 24%
inhibition of growth at 10 µM [4]: 25%
inhibition of growth at 10 µM [5]: 16%

O=C1CNCC(=O)N1Cc1ccco1
inhibition of growth at 10 µM [1]: 7%
inhibition of growth at 10 µM [2]: 26%
inhibition of growth at 10 µM [3]: 21%
inhibition of growth at 10 µM [4]: 30%
inhibition of growth at 10 µM [5]: 4%

O=C1CNCC(=O)N1CCN1CCCC1
inhibition of growth at 10 µM [1]: 0%
inhibition of growth at 10 µM [2]: 26%
inhibition of growth at 10 µM [3]: 18%
inhibition of growth at 10 µM [4]: 49%
inhibition of growth at 10 µM [5]: 1%

O=C1CCCN1CCCN1C(=O)CNCC1=O
inhibition of growth at 10 µM [1]: 21%
inhibition of growth at 10 µM [2]: 25%
inhibition of growth at 10 µM [3]: 40%
inhibition of growth at 10 µM [4]: 19%
inhibition of growth at 10 µM [5]: 21%

C[C@@H]1C[C@@H]([C@H](O)CC2CC(=O)NC(=O)C2)C(=O)[C@@H](C)C1 [CYCLOHEXIMIDE]
inhibition of growth at 10 µM [1]: 15%
inhibition of growth at 10 µM [2]: 34%
inhibition of growth at 10 µM [3]: 26%
inhibition of growth at 10 µM [4]: 16%
inhibition of growth at 10 µM [5]: 11%

O=P1(N(CCCl)CCCl)NCCCO1 (stereo not given) [CYCLOPHOSPHAMIDE ANHYDROUS]
inhibition of growth at 10 µM [1]: 11%
inhibition of growth at 10 µM [2]: 12%
inhibition of growth at 10 µM [3]: 18%
inhibition of growth at 10 µM [4]: 12%
inhibition of growth at 10 µM [5]: 26%

O=c1[nH]cc(F)c(=O)[nH]1 [FLUOROURACIL]
inhibition of growth at 10 µM [1]: 24%
inhibition of growth at 10 µM [2]: 22%
inhibition of growth at 10 µM [3]: 18%
inhibition of growth at 10 µM [4]: 19%
inhibition of growth at 10 µM [5]: 15%
